Values after ≈ are worked out from the molar mass of the structure shown. Square brackets hold non-standard residues; d marks the D form. Peptide text beside a SMILES is read from it. 2Nal = N[C@@H](Cc1ccc2ccccc2c1)C(=O)O; Cha = N[C@@H](CC1CCCCC1)C(=O)O
Key:
Erythrocyte = test: Hemolytic activity in erythrocytes (unknown origin); type: toxicity, cell-based
[1] = Hemolytic activity against human Red blood cells assessed as cell lysis; type: toxicity, cell-based, Erythrocyte
[2] = system: Mycolicibacterium smegmatis; test: Antimycobacterial activity against Mycobacterium smegmatis mc2 155 assessed as reduction in bacterial cell growth incubated for 24 hrs by resazurin dye based broth microdilution method; type: functional
Escherichia coli [3] = test: Antibacterial acitivity against Escherichia coli DH5a assessed as bacterial growth inhibition incubated for 24 hrs by broth micro-dilution method; type: functional
Zymomonas mobilis = test: Antibacterial activity against Zymomonas mobilis ATCC 10988 assessed as reduction in bacterial growth incubated for 24 hrs by broth micro-dilution method; type: functional
Bacillus subtilis [4] = test: Antimicrobial activity against Bacillus subtilis assessed as microbial growth inhibition incubated for 24 hrs by broth micro-dilution method; type: functional
Pseudomonas aeruginosa [5] = test: Antimicrobial activity against Pseudomonas aeruginosa assessed as inhibition of microbial growth incubated for 24 hrs by microdilution method; type: functional
Enterococcus faecium [6] = test: Antibacterial activity against Vancomycin resistant Enterococcus faecium ATCC 700221 assessed as inhibition of bacterial growth incubated for 16 to 20 hrs by broth micro-dilution method; type: functional; conditions: time 16-20 hrs
Staphylococcus aureus [7] = test: Antibacterial activity against methicillin resistant Staphylococcus aureus ATCC 33591 assessed as inhibition of bacterial growth incubated for 16 to 20 hrs by broth micro-dilution method; type: functional; conditions: time 16-20 hrs
Staphylococcus aureus [8] = test: Antibacterial activity against methicillin-resistant Staphylococcus aureus ATCC 33591 assessed as reduction in bacterial growth incubated for 16 to 24 hrs by agar dilution method; type: functional; conditions: time 16-24 hrs
[9] = Hemolytic activity in human RBC; type: toxicity, cell-based, Erythrocyte; conditions: red blood cells
Escherichia coli [10] = test: Antibacterial activity against Escherichia coli ATCC 25922 assessed as reduction in bacterial growth incubated for 18 to 24 hrs by broth microdilution method; type: functional; conditions: time 18-24 hrs
[11] = Hemolytic activity against Red blood cells (unknown origin) incubated for 1 hr by spectrophotometric analysis; type: toxicity, cell-based, Erythrocyte
Enterococcus faecium [12] = test: Antibacterial activity against vancomycin resistant Enterococcus faecium NCTC 12204 assessed as reduction in bacterial growth by microdilution broth method; type: functional
Pseudomonas aeruginosa [13] = test: Antibacterial activity against Pseudomonas aeruginosa ATCC 15442 assessed as reduction in bacterial cell growth incubated for 18 to 24 hrs by two fold serial microdilution method; type: functional; conditions: time 18-24 hrs
Bacillus subtilis [14] = test: Antibacterial activity against Bacillus subtilis ATCC 23857 assessed as reduction in bacterial growth measured after 18 to 24 hrs by CLSI protocol-based Mueller-Hinton broth dilution method; type: functional; conditions: time 18-24 hrs
Escherichia coli [15] = test: Antibacterial activity against multi-drug resistant Escherichia coli clinical isolate 850 assessed as reduction in bacterial growth measured after 18 to 24 hrs by CLSI protocol-based Mueller-Hinton broth dilution method; type: functional; conditions: time 18-24 hrs
Acinetobacter baumannii = test: Antibacterial activity against multi-drug resistant Acinetobacter baumannii clinical isolate 9840 assessed as reduction in bacterial growth measured after 18 to 24 hrs by CLSI protocol-based Mueller-Hinton broth dilution method; type: functional; conditions: time 18-24 hrs
Pseudomonas aeruginosa [16] = test: Antibacterial activity against multi-drug resistant Pseudomonas aeruginosa clinical isolate 119 assessed as reduction in bacterial growth measured after 18 to 24 hrs by CLSI protocol-based Mueller-Hinton broth dilution method; type: functional; conditions: time 18-24 hrs
Staphylococcus aureus [17] = test: Antibacterial activity against Staphylococcus aureus ATCC 25923 assessed as reduction in bacterial growth measured after 18 to 24 hrs by CLSI protocol-based Mueller-Hinton broth dilution method; type: functional; conditions: time 18-24 hrs
Klebsiella pneumoniae = test: Antibacterial activity against Klebsiella pneumoniae ATCC 700603 assessed as reduction in bacterial growth measured after 18 to 24 hrs by CLSI protocol-based Mueller-Hinton broth dilution method; type: functional; conditions: time 18-24 hrs

| Compound | HC10 (Erythrocyte) | MIC (Staphylococcus aureus [8]) | HC50 [9] | MIC (Escherichia coli [10]) | HC50 at 1 h [11] | MIC (Enterococcus faecium [12]) | MIC (Pseudomonas aeruginosa [13]) | other results |
| --- | --- | --- | --- | --- | --- | --- | --- | --- |
| CC[C@@H](C)[C@@H](NC(=O)[C@H](CCCNC(=N)N)NC(=O)[C@H](CCCCN)NC(=O)[C@H](CC(C)C)NC(=O)[C@H](CC1CCCCC1)NC(=O)CN)C(=O)N[C@@H](CCCCN)C(=O)N[C@H](C(=O)N[C@@H](CC(C)C)C(=O)N[C@@H](CC1CCCCC1)C(N)=O)[C@@H](C)O | 225.6 µM |  |  |  |  |  |  |  |
| CC[C@H](C)[C@H](NC(=O)[C@H](CCCNC(=N)N)NC(=O)[C@H](CCCCN)NC(=O)[C@H](CCCCN)NC(=O)[C@H](CC(C)C)NC(=O)CN)C(=O)N[C@@H](CCCCN)C(=O)N[C@@H](CCCCN)C(=O)N[C@@H](CC(C)C)C(=O)N[C@@H](CC(C)C)C(N)=O (H-GLKKRIKKLL-NH2) |  |  |  |  |  |  |  | HC50 [1]: > 174 µM; MIC [2]: 13 µM (≈ 15.5 µg/mL); MIC (Escherichia coli [3]): > 174 µM; MIC (Zymomonas mobilis): 12.6 µM (≈ 15.1 µg/mL); MIC (Bacillus subtilis [4]): 13 µM (≈ 15.5 µg/mL); MIC (Pseudomonas aeruginosa [5]): 13 µM |
| CC[C@@H](C)[C@@H](NC(=O)[C@H](CCCCN)NC(=O)[C@H](CCCCN)NC(=O)[C@H](CC(C)C)NC(=O)[C@H](CC(C)C)NC(=O)CN)C(=O)N[C@@H](CCCCN)C(=O)N[C@H](C(=O)N[C@@H](CC(C)C)C(=O)N[C@@H](CC(C)C)C(N)=O)[C@@H](C)O | 7209 µM |  |  |  |  |  |  | MIC (Enterococcus faecium [6]): 492 µM (≈ 554 µg/mL); MIC (Staphylococcus aureus [7]): 1020 µM (≈ 1150 µg/mL) |
| CC(C)C[C@H](NC(=O)[C@H](CC(C)C)NC(=O)[C@@H](NC(=O)[C@H](CCCCN)NC(=O)[C@H](Cc1ccc2ccccc2c1)NC(=O)[C@H](CCCCN)NC(=O)[C@H](CCCCN)NC(=O)[C@H](CC(C)C)NC(=O)[C@H](CC1CCCCC1)NC(=O)CN)[C@@H](C)O)C(N)=O (H-G[Cha]LKK[2Nal]KTLL-NH2) |  | 28.4 µM (≈ 35.5 µg/mL) | 15.3 µM | 9.5 µM (≈ 11.9 µg/mL) | 15.3 µM | 9.5 µM (≈ 11.9 µg/mL) | 9.5 µM (≈ 11.9 µg/mL) |  |
| CC(C)C[C@H](NC(=O)CN)C(=O)N[C@@H](CC(C)C)C(=O)N[C@@H](CCCCN)C(=O)N[C@@H](CCCCN)C(=O)N[C@@H](Cc1ccc2ccccc2c1)C(=O)N[C@@H](CCCCN)C(=O)N[C@H](C(=O)N[C@@H](CC(C)C)C(=O)N[C@@H](CC1CCCCC1)C(N)=O)[C@@H](C)O (H-GLLKK[2Nal]KTL[Cha]-NH2) |  | 9.5 µM (≈ 11.9 µg/mL) | 26.6 µM | 9.5 µM (≈ 11.9 µg/mL) | 26.6 µM | 4.6 µM (≈ 5.75 µg/mL) | 6.6 µM (≈ 8.25 µg/mL) |  |
| CC(C)C[C@H](NC(=O)[C@H](CC(C)C)NC(=O)[C@H](CCCCN)NC(=O)[C@H](CCCCN)NC(=O)[C@H](Cc1ccc2ccccc2c1)NC(=O)[C@H](CCCNC(=N)N)NC(=O)[C@H](CCCCN)NC(=O)[C@H](CC(C)C)NC(=O)[C@H](CCCCN)NC(=O)CN)C(N)=O (H-GKLKR[2Nal]KKLL-NH2) |  | 41 µM (≈ 52.5 µg/mL) | 50.1 µM | 9.5 µM (≈ 12.2 µg/mL) | 50.1 µM | 13.7 µM (≈ 17.5 µg/mL) | 9.5 µM (≈ 12.2 µg/mL) |  |
| CC(C)C[C@H](NC(=O)[C@H](CC(C)C)NC(=O)[C@H](CCCCN)NC(=O)[C@H](CCCCN)NC(=O)[C@@H](Cc1ccc2ccccc2c1)NC(=O)[C@H](CCCNC(=N)N)NC(=O)[C@H](CCCCN)NC(=O)[C@H](CC(C)C)NC(=O)[C@H](CC1CCCCC1)NC(=O)CN)C(=O)O | 27 µM |  |  |  |  |  |  | MIC (Enterococcus faecium [6]): 3.2 µM (≈ 4.18 µg/mL); MIC (Staphylococcus aureus [7]): 9.5 µM (≈ 12.4 µg/mL) |
| CC[C@H](C)[C@H](NC(=O)[C@H](CCCNC(=N)N)NC(=O)[C@@H](CCCCN)NC(=O)[C@H](CC(C)C)NC(=O)[C@H](CC(C)C)NC(=O)CNC(C)=O)C(=O)N[C@H](CCCCN)C(=O)N[C@H](C(=O)N[C@@H](CC(C)C)C(=O)N[C@@H](CC(C)C)C(=O)NC(Cc1cn(CCCC[C@H](NC(C)=O)C(=O)NCC(=O)N[C@@H](CC(C)C)C(=O)N[C@@H](CC(C)C)C(=O)N[C@@H](CCCCN)C(=O)N[C@H](CCCNC(=N)N)C(=O)N[C@H](C(=O)N[C@H](CCCCN)C(=O)N[C@H](C(=O)N[C@@H](CC(C)C)C(=O)N[C@@H](CC(C)C)C(N)=O)[C@@H](C)O)[C@@H](C)CC)nn1)C(N)=O)[C@@H](C)O (some centres not stated) |  |  |  |  |  |  |  | MIC (Bacillus subtilis [14]): 4 µM (≈ 10.6 µg/mL); MIC (Escherichia coli [15]): 16 µM (≈ 42.2 µg/mL); MIC (Acinetobacter baumannii): 8 µM (≈ 21.1 µg/mL); MIC (Pseudomonas aeruginosa [16]): 16 µM (≈ 42.2 µg/mL); MIC (Staphylococcus aureus [17]): 128 µM (≈ 338 µg/mL); MIC (Klebsiella pneumoniae): 16 µM (≈ 42.2 µg/mL) |

Reference: ChEMBL document CHEMBL5608163, “Structure modification of anoplin for fighting resistant bacteria” (Eur J Med Chem, 2024)
